Patent publication US11992011B2, “Compounds for controlling plant pathogens” (VIB VZW, priority 2017, dated 2024)
Read-outs that look alike come from different tables or passages of the source.

Experiments:
[1] = tested on: Arabidopsis thaliana seedlings; conditions: continuous exposure; Steenackers et al. 2016; cited from earlier work
[2] = tested on: Heterodera schachtii; experiment: Heterodera schachtii infection in sugar beet (Example 9); format: in vivo; conditions: 10 μM PA
Protocol: Sugar beet seeds (cultivar Jolgeh) were germinated for five days at 25° C. on sterile potting soil saturated with distilled water. Seedlings were transferred to SAP tubes, which were placed in a growth chamber at 24° C. (16h per day of fluorescent lighting). The first two days after transfer, the tubes were covered with a polyethylene film (Saran Film, Dow Chemicals, Midland, USA) to prevent excessive evaporation. Seedlings were watered three times per week with 8 ml of Hoagland solution.
Cysts were collected from sugar beets (cv. Jolgeh) kept in a growing chamber at 21° C. through a flotation protocol. Plant roots and their surrounding soil were placed in a water bath at room temperature and gently agitated, followed by decanting and sieving to allow collection of cysts. Cysts were are-dried for two days and stored until use.
Hatching of cysts was induced by exposing them to a zinc chloride solution (3 mM in distilled water) at 25° C. for three days. Five 100 μl samples were taken from this suspension. The number of J2 juveniles in each sample was counted and the results were averaged. Sugar beet plants were inoculated fourteen days after transfer to SAP with the required volume of suspension to inoculate each plant with an average of 250 J2 nematodes.
Infection experiments with H. schachtii were performed by inoculating host plants 14 days after transfer to SAP by introducing 250 J2 juveniles to their root system using a micro pipette. Plants were harvested 31 days after inoculation. At this point, the plants were phenotyped by measuring the root and shoot length with a ruler. Cysts were collected through a sucrose flotation protocol and then counted and microscopically assessed for maturity.
To test whether the compounds of the invention are effective against other nematodes and in other plant species, PA was tested on the interaction between the dicot crop sugar beet (Beta vulgaris) and the cyst nematode Heterodera schachtii. At this point, it was not known whether dicots would tolerate PA as well as monocots and so a much lower dose (10 μM) was used instead.

[3] = tested on: Meloidogyne incognita; experiment: M. incognita infection in NahG-expressing tomato (Example 17); format: in vivo
Protocol: Infection experiments with M. incognita were performed in the same manner as those with M. graminicola, except that plants were harvested 31 days after inoculation instead of 14 days. At this point, the plants were phenotyped by measuring the root length with a ruler and in some experiments by measuring leaf area using the EasyLeafArea software (Easlon and Bloom, 2014) and by determining shoot dry mass after 72 hours of drying in an oven at 70° C. Galls were stained and counted as described above.
To evaluate this further, a tomato line deficient in salicylic acid biosynthesis and signaling respectively was treated with PA. […] If this line still responds to PA, it further strengthens the notion that salicylic acid accumulation is not the cause of C4H inhibitor-induced nematode resistance, for which evidence in rice was already provided in Example 16.

[4] = tested on: OsAOS2; experiment: qRT-PCR in rice roots, OsAOS2 (Example 20); format: in vivo, Oryza sativa; conditions: rice cv. Bomba root tissue; same samples as Example 19
Protocol: After quality control, qPCR was carried out.
To test whether other defense hormones might be involved, genes responsive to jasmonic acid (the biosynthesis gene OsAOS2) and auxin (the auxin conjugating enzyme OsGH3.1) were investigated. Moreover, the callose-degrading enzyme OsGNS5, downregulation of which is associated with basal defense, was also investigated. The qRT-PCR analysis was performed on the same samples used in the previous Example.

[5] = tested on: Arabidopsis thaliana seedlings; experiment: Primary root elongation of Arabidopsis thaliana seedlings (IC50-root); format: in vivo; conditions: continuous exposure, unpublished data
[6] = tested on: Botrytis cinerea (isolate R16); experiment: Botrytis cinerea infection of detached tomato leaves (Example 13); format: in vivo; parameters: dose or concentration left out as unconfirmed; conditions: spray containing PA, four days after inoculation, vs control
Protocol: Tomato plants (cv. Moneymaker) were grown for four weeks in potting soil as described in the plant material section. Six hours before inoculation, the third leaf of each tomato plant was detached. The petioles were wrapped in wet tissue paper and the leaves were placed on a petri dish. […] Finally, the tray was covered with a plastic autoclave bag to keep humidity at 100%.
Botrytis cinerea (line R16) spores were obtained as described in the fungal culture section, centrifuged for five minutes at 3000 rpm and resuspended to a concentration of 1.0×10^6 spores per ml with a solution of 0.01 M glucose and 0.0067 M KH2PO4. The spore suspension was left at room temperature for one hour to trigger germination. […]
Six drops of spore suspension of 15 μl each were spotted on each detached tomato leaf, after which the tray was covered again. The tray was placed at room temperature away from direct sunlight and left for four days. At this point, chlorophyll fluorescence measurements were taken to assess the success of infection. Two parameters were assessed: whether the B. cinerea lesion had spread beyond the droplet area (successful invasion) and the total surface area of successfully established lesions (post-invasion growth).

[7] = tested on: J2 juveniles of Meloidogyne graminicola; experiment: In vitro nematode toxicity assay, M. graminicola J2 (Example 11); conditions: Vertimec 0.02 v/v % abamectin
Protocol: J2 juveniles of Meloidogyne graminicola and Heterodera schachtii were isolated from Echinocloa cruss-galli roots and sugar beet roots respectively. Per treatment and species combination, 300 nematodes were isolated and divided over six wells that contained 1.5 ml of either sterilized tap water, a 100 μM C4H inhibitor solution or a 0.02 v/v % solution of the nematicide abamectin (Vertimec®, Syngenta AG). The nematodes were incubated in the dark on a slow-moving rotary shaker (50 rpm) and the number of living nematodes was counted regularly using a binocular microscope.
To rule out definitively that the compounds of the invention operate through direct toxicity to nematodes, an in vitro toxicity assay on J2 juveniles of the nematodes Meloidogyne graminicola and Heterodera schachtii was performed.
First, survival upon exposure to the C4H inhibitor piperonylic acid (PA) was compared to a negative control (tap water) and a positive control, the commercial nematicide Vertimec (0.02% Abamectin). A detailed survival curve is shown in FIG. 12a (M. graminicola) and FIG. 12b (H. schachtii).
In a second experiment, a broader range of C4H inhibitors were assayed in the same manner. The toxicity of piperonylic acid (PA), piperine (PIP), 4-propynyloxybenzoic acid (4PB), and 3-(4-pyridyl)acrylic acid (3PA) to J2 juveniles of Meloidogyne graminicola was compared to a negative control (tap water) and a true nematicide (Vertimec, active ingredient abamectin).

[8] = infected sugar beet, mean ± SD, n = 8

Row | SMILES | IC50 [1] | Number of mature cysts [2, 8] | Proportion of mature cysts [2, 8] | Total number of cysts [2, 8] | reduction of the number of Heterodera schachtii nematodes ([2]; sugar beet, statistically insignificant) | change of number of galls, PA-treated NahG plants vs untreated wild type plants ([3]; NahG-expressing (SA-deficient) tomato) | difference in number of galls, PA-treated NahG plants vs PA-treated wild type plants ([3]; NahG-expressing tomato, not significant) | Fold change vs. control, OsAOS2 expression [4] | IC50 [5] | change of mean size of successfully established/spreading lesions [6] | change of number of inoculation spots in which fungal lesions developed [6] | survival after 24 hours of exposure ([7]; PA 100 μM, control 94.2±2.4) | survival at the end of the experiment ([7]; second experiment, C4H inhibitor 100 μM, water control 93%)
1 | O=C(O)/C=C/c1ccc2c(c1)OCO2 [MDCA, 3,4-methylenedioxycinnamic acid] | 5.07 µM | – | – | – | – | – | – | – | – | – | – | – | –
2 | O=C(O)c1ccc2c(c1)OCO2 [PA, Piperonylic acid] | – | 7.5 ± 4.4 | 0.48 ± 0.25 | 15.3 ± 0.7 | 20% | −36% | +9% | 0.71 | 40 µM | −62% | −50% | 97.1±1.8% | 95%
